Reference: patent US20260317344A1, “EGFR INHIBITORS FOR TREATING DISEASE” (BLOSSOMHILL THERAPEUTICS, INC., priority 2023, published 2026)

Key:
EGFR (L858R) = EGFR (L858R) (Homo sapiens, UniProt P00533, L858R); assay: HotSpot radiometric kinase assay, inhibition of EGFR L858R mutant; assay type: biochemical; conditions: 33P ATP, room temperature, 120 m
Protocol: (§1) Biochemical Assays for inhibition of wild-type and mutant EGFRs
(§2) Briefly, specific kinase/substrate pairs along with required cofactors were prepared in reaction buffer; 20 mM HEPES pH 7.5, 10 mM […], 1 mM EGTA, 0.02% Brij35, 0.02 mg/ml BSA, 0.1 mM Na3VO4, 2 mM DTT, 1% DMSO. Compounds were delivered into the reaction, followed ~20 minutes later by addition of a mixture of ATP (Sigma, St. Louis MO) and ^33P ATP (Perkin Elmer, Waltham MA) to a final concentration of […]. Reactions were carried out at room temperature for 120 m, followed by spotting of the reactions onto P81 ion exchange filter paper (Whatman Inc., Piscataway, NJ). Unbound phosphate was removed by extensive washing of filters in 0.75% phosphoric acid. […] IC50 values and curve fits were obtained using Prism (GraphPad Software).

[1] = test system: BaF3 cells with engineered EGFR L858R/T790M/C797S; assay: 3-Day CellTiter Glo (CTG) cell proliferation assay, BaF3 EGFR L858R/T790M/C797S; assay type: cell-based; conditions: Mus musculus, 3-day CTG proliferation, 72 hours
Summary of the method: (§3)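 Viability after 72 h compound exposure (9 concentrations, 37° C, 5% CO2) was measured as ATP luminescence with CellTiter-Glo 2.0 in EGFR-mutant-engineered BaF3 cells plated at one thousand cells per well. IC50 values obtained by curve fitting.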

[2] = test system: BaF3 cells with engineered EGFR d746-750/T790M; assay: 3-Day CellTiter Glo (CTG) cell proliferation assay, BaF3 EGFR d746-750/T790M; assay type: cell-based; conditions: Mus musculus; BaF3 EGFR d746-750/T790M cells, 3-day CTG proliferation, 72 hours
Summary of the method: as §3

[3] = biological target: T1, pEGFR, A431 cells (wildtype EGFR) (Homo sapiens, UniProt P00533); assay: Cellular EGFR phosphorylation assay (LANCE Ultra TR-FRET) in A431 cells; assay type: cell-based; conditions: 4 hours at 37° C., 40 ng/mL EGF for the final 10 minutes, read-out: A431 pEGFR IC50
T1 construct: pEGFR (Tyr1068) TR-FRET
T1 sequence (P00533 25-1210): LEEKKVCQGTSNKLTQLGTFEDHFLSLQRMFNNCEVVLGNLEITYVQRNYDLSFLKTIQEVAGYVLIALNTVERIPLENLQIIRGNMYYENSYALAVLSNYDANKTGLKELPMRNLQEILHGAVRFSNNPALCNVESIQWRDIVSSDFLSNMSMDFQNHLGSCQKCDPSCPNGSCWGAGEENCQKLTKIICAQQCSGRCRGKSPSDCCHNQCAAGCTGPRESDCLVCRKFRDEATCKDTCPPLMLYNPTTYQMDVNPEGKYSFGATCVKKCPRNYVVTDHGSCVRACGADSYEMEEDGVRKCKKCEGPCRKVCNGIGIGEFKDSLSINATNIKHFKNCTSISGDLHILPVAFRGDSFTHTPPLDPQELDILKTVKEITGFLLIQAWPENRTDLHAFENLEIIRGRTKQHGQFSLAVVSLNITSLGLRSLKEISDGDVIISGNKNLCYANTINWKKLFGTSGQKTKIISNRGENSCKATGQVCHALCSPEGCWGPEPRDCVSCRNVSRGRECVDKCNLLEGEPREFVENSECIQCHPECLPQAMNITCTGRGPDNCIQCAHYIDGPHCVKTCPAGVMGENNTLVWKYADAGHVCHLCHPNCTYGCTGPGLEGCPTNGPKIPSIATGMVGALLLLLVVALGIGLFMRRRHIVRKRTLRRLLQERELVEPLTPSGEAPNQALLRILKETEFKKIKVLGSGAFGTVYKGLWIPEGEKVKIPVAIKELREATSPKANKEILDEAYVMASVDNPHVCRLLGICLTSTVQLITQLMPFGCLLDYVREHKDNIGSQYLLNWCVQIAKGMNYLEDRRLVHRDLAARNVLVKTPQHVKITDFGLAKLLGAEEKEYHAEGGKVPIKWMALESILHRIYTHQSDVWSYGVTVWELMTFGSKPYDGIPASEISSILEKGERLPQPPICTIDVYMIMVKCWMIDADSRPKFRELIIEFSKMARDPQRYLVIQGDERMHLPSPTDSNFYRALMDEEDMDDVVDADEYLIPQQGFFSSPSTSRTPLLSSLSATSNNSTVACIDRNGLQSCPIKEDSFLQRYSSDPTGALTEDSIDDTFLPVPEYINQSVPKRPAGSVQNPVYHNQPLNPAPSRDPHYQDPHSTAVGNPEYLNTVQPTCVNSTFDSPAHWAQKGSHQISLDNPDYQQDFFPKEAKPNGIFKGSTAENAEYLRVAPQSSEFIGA
Summary of the method: (§4)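 4 h compound treatment at 37 °C, 9-point 3-fold titration. EGF (40 ng/mL, final 10 min) in A431 only. Tyr1068 phosphorylation measured by TR-FRET and IC50 fitted.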

EGFR WT = EGFR WT (Homo sapiens, UniProt P00533); assay: HotSpot radiometric kinase assay, inhibition of EGFR WT; assay type: biochemical; conditions: 33P ATP, room temperature, 120 m
Chain of EGFR WT (P00533 25-1210): as above
Protocol: as §1, §2

EGFR (D746-750/C797S) = EGFR (D746-750/C797S) (Homo sapiens, UniProt P00533, C797S/DEL746-750); assay: HotSpot radiometric kinase assay, inhibition of EGFR 746-750/C797S mutant; assay type: biochemical; conditions: 33P ATP, room temperature, 120 m
Summary of the method: (§5)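 Kinase/substrate pairs in 20 mM HEPES pH 7.5, 10 mM MgCl2, 1 mM EGTA, 0.02% Brij35, 0.02 mg/ml BSA, 0.1 mM Na3VO4, 2 mM DTT, 1% DMSO, preincubated ~20 min with compound. Reaction started with ATP/33P-ATP ([…]), run 120 min at room temperature; phosphorylation read by P81 filter binding, IC50 from curve fits.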

EGFR (L858R/T790M/C797S) = EGFR (L858R/T790M/C797S) (Homo sapiens, UniProt P00533, C797S/L858R/T790M); assay: HotSpot radiometric kinase assay, inhibition of EGFR L858R/T790M/C797S mutant; assay type: biochemical; conditions: 33P ATP, room temperature, 120 m
Summary of the method: as §5

[4] = biological target: T2, pEGFR, PC-9 cells (d746-750 EGFR) (Homo sapiens, UniProt P00533, DEL746-750); assay: Cellular EGFR phosphorylation assay (LANCE Ultra TR-FRET) in PC-9 cells; assay type: cell-based; conditions: 4 hours at 37° C., read-out: PC-9 pEGFR IC50
T2 construct: pEGFR (Tyr1068) TR-FRET
Summary of the method: as §4

EGFR (L858R/T790M) = EGFR (L858R/T790M) (Homo sapiens, UniProt P00533, L858R/T790M); assay: HotSpot radiometric kinase assay, inhibition of EGFR L858R/T790M mutant; assay type: biochemical; conditions: 33P ATP, room temperature, 120 m
Protocol: as §1, §2

[5] = biological target: T3, pEGFR, NCI-H1975 cells (L858R/T790M EGFR) (Homo sapiens, UniProt P00533, L858R/T790M); assay: Cellular EGFR phosphorylation assay (LANCE Ultra TR-FRET) in NCI-H1975 cells; assay type: cell-based; conditions: 4 hours at 37° C., read-out: H1975 pEGFR IC50
T3 construct: pEGFR (Tyr1068) TR-FRET
T3 sequence (P00533 25-1210 T790M/L858R): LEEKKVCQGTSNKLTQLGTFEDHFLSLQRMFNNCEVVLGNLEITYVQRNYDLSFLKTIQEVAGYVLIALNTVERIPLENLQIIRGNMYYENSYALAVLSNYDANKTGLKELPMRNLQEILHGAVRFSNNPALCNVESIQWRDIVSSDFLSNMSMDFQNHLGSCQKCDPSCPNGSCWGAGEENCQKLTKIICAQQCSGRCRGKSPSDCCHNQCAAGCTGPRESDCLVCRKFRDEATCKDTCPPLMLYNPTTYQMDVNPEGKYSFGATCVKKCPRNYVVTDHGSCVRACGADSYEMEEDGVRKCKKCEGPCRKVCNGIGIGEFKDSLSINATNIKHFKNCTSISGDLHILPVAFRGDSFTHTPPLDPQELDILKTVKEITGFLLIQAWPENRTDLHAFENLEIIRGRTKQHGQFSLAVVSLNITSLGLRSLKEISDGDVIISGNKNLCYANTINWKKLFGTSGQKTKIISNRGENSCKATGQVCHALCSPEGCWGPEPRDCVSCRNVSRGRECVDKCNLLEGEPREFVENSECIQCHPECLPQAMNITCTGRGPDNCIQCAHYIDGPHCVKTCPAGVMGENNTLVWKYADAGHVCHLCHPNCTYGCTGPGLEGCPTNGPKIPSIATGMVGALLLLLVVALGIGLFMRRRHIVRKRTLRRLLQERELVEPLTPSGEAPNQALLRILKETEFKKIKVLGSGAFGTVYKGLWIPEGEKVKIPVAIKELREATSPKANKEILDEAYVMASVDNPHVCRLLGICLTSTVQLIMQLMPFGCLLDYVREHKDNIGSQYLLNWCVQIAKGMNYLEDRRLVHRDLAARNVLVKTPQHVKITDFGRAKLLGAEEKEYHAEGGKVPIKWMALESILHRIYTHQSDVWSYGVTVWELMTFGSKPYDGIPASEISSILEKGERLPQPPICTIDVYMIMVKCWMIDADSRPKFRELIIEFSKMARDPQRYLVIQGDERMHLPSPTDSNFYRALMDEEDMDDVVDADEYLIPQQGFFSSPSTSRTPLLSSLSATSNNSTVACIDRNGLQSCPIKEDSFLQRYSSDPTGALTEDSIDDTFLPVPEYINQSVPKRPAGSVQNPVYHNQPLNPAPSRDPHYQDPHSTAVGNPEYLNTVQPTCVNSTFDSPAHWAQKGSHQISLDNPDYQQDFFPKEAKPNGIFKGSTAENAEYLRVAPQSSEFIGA
Summary of the method: as §4

EGFR (D770_N771insNPG) = EGFR (D770_N771insNPG) (Homo sapiens, UniProt P00533, INS770NPG); assay: HotSpot radiometric kinase assay, inhibition of EGFR (D770_N771insNPG) mutant; assay type: biochemical; conditions: 33P ATP, room temperature, 120 m
Summary of the method: as §5

EGFR (D746-750) = EGFR (D746-750) (Homo sapiens, UniProt P00533, DEL746-750); assay: HotSpot radiometric kinase assay, inhibition of EGFR 746-750 mutant; assay type: biochemical; conditions: 33P ATP, room temperature, 120 m
Summary of the method: as §5

PC-9 cells = assay: 5-Day CellTiter Glo (CTG) cell proliferation assay, PC-9; assay type: cell-based; conditions: Homo sapiens; PC-9 cells (d746-750 EGFR), 5-day CTG proliferation, 120 hours; read-out: PC-9 IC50
Summary of the method: (§6)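 Luminescent ATP signal (CellTiter-Glo 2.0) after 120 hours of compound exposure gave IC50 values. PC-9 and HCC827 harbour EGFR d746-750; NCI-H1975 harbours L858R/T790M.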

HCC827 cells = assay: 5-Day CellTiter Glo (CTG) cell proliferation assay, HCC827; assay type: cell-based; conditions: Homo sapiens; HCC827 cells (d746-750 EGFR), 5-day CTG proliferation, 120 hours; read-out: HCC827 IC50
Summary of the method: as §6

NCI-H1975 cells = assay: 5-Day CellTiter Glo (CTG) cell proliferation assay, NCI-H1975; assay type: cell-based; conditions: Homo sapiens; NCI-H1975 cells (L858R/T790M EGFR), 5-day CTG proliferation, 120 hours; read-out: H1975 IC50
Summary of the method: as §6

[6] = test system: BaF3 cells with engineered EGFR L858R/C797S; assay: 3-Day CellTiter Glo (CTG) cell proliferation assay, BaF3 EGFR L858R/C797S; assay type: cell-based; conditions: Mus musculus, 3-day CTG proliferation, 72 hours
Summary of the method: as §3

Chain of EGFR (L858R) (P00533 25-1210 L858R): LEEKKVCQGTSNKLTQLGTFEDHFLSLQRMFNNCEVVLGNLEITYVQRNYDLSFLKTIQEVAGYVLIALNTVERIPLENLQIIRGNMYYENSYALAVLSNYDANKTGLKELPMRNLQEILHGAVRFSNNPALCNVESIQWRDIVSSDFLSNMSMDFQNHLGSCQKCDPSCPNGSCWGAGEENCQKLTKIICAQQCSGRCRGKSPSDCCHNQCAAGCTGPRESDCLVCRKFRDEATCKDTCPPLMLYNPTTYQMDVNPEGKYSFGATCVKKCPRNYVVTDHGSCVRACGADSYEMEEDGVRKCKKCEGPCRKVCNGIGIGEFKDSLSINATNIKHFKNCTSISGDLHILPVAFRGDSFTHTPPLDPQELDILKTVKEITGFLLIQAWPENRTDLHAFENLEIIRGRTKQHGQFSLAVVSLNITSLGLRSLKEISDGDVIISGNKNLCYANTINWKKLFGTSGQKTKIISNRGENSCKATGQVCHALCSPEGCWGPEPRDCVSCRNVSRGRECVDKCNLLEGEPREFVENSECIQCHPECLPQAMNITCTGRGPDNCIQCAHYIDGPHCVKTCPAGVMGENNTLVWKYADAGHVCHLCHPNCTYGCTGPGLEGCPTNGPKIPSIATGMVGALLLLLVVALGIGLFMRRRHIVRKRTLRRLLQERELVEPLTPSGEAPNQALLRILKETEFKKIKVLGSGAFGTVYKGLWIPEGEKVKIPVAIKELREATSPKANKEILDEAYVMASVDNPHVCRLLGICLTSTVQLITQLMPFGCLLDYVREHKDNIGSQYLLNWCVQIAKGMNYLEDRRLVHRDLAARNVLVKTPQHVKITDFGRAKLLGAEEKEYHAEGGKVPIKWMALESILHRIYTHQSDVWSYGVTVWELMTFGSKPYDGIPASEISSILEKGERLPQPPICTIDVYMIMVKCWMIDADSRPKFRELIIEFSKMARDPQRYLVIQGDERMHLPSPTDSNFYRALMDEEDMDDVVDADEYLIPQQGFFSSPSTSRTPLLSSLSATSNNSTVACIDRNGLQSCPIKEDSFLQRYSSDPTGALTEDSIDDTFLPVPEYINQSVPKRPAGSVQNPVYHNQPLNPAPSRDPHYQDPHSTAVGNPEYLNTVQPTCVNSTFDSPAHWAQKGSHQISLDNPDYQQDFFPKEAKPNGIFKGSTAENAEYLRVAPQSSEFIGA

| SMILES | IC50 (EGFR (L858R)) | IC50 [1] | IC50 [2] | IC50 [3] | IC50 (EGFR WT) | IC50 (EGFR (D746-750/C797S)) | IC50 (EGFR (L858R/T790M/C797S)) | IC50 [4] | IC50 (EGFR (L858R/T790M)) | IC50 [5] | IC50 (EGFR (D770_N771insNPG)) | IC50 (EGFR (D746-750)) | IC50 (PC-9 cells) | IC50 (HCC827 cells) | IC50 (NCI-H1975 cells) | IC50 [6] |
| --- | --- | --- | --- | --- | --- | --- | --- | --- | --- | --- | --- | --- | --- | --- | --- | --- |
| CCN1Cc2c(c(OC(C)C)nn2CCO)/C=C/c2n[nH]c3cnc(cc23)-c2cnn(C)c2O[C@H](C)C1 [Ex. 10, 2-[(10R,17E)-12-ethyl-8,10-dimethyl-16-[(propan-2-yl)oxy]-2,8,10,11,12,13-hexahydro-14H-5,3-(azenometheno)tripyrazolo[3,4-f:3′,4′-j:4″,3″-n][1,4]oxazacyclopentadecin-14-yl]ethan-1-ol] | 0.46 nM | 1.89 nM | 0.69 nM | 51.9 nM | 0.35 nM | 0.27 nM | 0.51 nM | 10.8 nM | 0.46 nM | 4.82 nM | 0.4 nM | 0.64 nM |  |  |  |  |
| CCOc1nn(CCO)c2c1/C=C/c1n[nH]c3cnc(cc13)-c1c(C)nn(C)c1OC[C@@H](C)N(CC)C2 [Ex. 18, 2-[(11R,17E)-16-ethoxy-12-ethyl-6,8,11-trimethyl-2,8,10,11,12,13-hexahydro-14H-5,3-(azenometheno)tripyrazolo[3,4-f:3′,4′-j:4″,3″-n][1,4]oxazacyclopentadecin-14-yl]ethan-1-ol] | 0.51 nM | 2.46 nM | 1.44 nM | 15.6 nM | 0.43 nM | 1.32 nM | 4.08 nM | 3.24 nM | 1.11 nM | 8.91 nM | 0.59 nM | 0.45 nM | 2.14 nM | 0.53 nM | 19.5 nM | 0.29 nM |
| CCOc1nn(CCO)c2c1/C=C/c1n[nH]c3c(C)nc(cc13)-c1cnn(C)c1O[C@@H](C)CN(C)C2 [Ex. 29, 2-[(10S,17E)-16-ethoxy-8,10,12,20-tetramethyl-2,8,10,11,12,13-hexahydro-14H-5,3-(azenometheno)tripyrazolo[3,4-f:3′,4′-j:4″,3″-30n][1,4]oxazacyclopentadecin-14-yl]ethan-1-ol] | 0.72 nM | 0.74 nM | 0.9 nM | 13.7 nM | 0.22 nM | 0.65 nM | 0.3 nM | 3.63 nM | 0.3 nM | 0.93 nM | 0.29 nM | 0.2 nM | 11.4 nM | 1.12 nM | 1.04 nM | 0.17 nM |
| CCN1Cc2c(c(C)nn2CCO)/C=C/c2n[nH]c3cnc(cc23)-c2c(C)nn(C)c2O[C@@H](C)C1 [Ex. 13, 2-[(10S,17E)-12-ethyl-6,8,10,16-tetramethyl-2,8,10,11,12,13-hexahydro-14H-5,3-(azenometheno)tripyrazolo[3,4-f:3′,4′-j:4″,3″-n][1,4]oxazacyclopentadecin-14-yl]ethan-1-ol] | 0.16 nM | 1.05 nM | 1.46 nM | 12 nM | 0.05 nM | 0.16 nM | 0.19 nM | 1 nM | 0.2 nM | 2.09 nM | 0.07 nM | 0.41 nM | 0.38 nM | 0.26 nM | 4.27 nM | 0.1 nM |
| CCOc1nn([C@@H](C)CO)c2c1/C=C/c1n[nH]c3cnc(cc13)-c1c(C)nn(C)c1O[C@@H](C)CN(C)C2 [Ex. 27, (2S)-2-[(10S,17E)-16-ethoxy-6,8,10,12-tetramethyl-2,8,10,11,12,13-hexahydro-14H-5,3-(azenometheno)tripyrazolo[3,4-f:3′,4′-j:4″,3″-n][1,4]oxazacyclopentadecin-14-yl]propan-1-ol] | 0.89 nM | 0.73 nM | 0.55 nM | 12.5 nM | 0.31 nM | 0.9 nM | 0.45 nM | 0.91 nM | 0.51 nM | 1.85 nM | 0.27 nM | 0.28 nM | 0.45 nM | 0.26 nM | 0.97 nM | 0.07 nM |
| CC(C)Oc1nn(CCO)c2c1/C=C/c1n[nH]c3cnc(cc13)-c1cnn(C)c1O[C@H](C)CN(C(C)C)C2 [Ex. 3, 2-[(10R,17E)-8,10-dimethyl-12-(propan-2-yl)-16-[(propan-2-yl)oxy]-2,8,10,11,12,13-hexahydro-14H-5,3-(azenometheno)tripyrazolo[3,4-f:3′,4′-j:4″,3″-n][1,4]oxazacyclopentadecin-14-yl]ethan-1-ol] | 1.5 nM | 1.81 nM | 4.51 nM | 36.5 nM | 1.83 nM | 1.56 nM | 0.85 nM | 14.7 nM | 1.33 nM | 6.43 nM | 3.8 nM | 1.27 nM | 55.4 nM | 4.42 nM | 29.6 nM | 1.3 nM |
| CCOc1nn([C@@H](C)CO)c2c1/C=C/c1n[nH]c3cnc(cc13)-c1cnn(C)c1O[C@@H](C)CN(C)C2 [Ex. 19, (2S)-2-[(10S,17E)-16-ethoxy-8,10,12-trimethyl-2,8,10,11,12,13-hexahydro-14H-5,3-(azenometheno)tripyrazolo[3,4-f:3′,4′-j:4″,3″-n][1,4]oxazacyclopentadecin-14-yl]propan-1-ol] | 0.2 nM | 0.79 nM |  | 10 nM | 0.15 nM | 0.6 nM | 1.78 nM | 2.54 nM | 0.37 nM | 2.85 nM | 0.19 nM | 0.14 nM | 2.74 nM | 0.28 nM | 1.51 nM | 0.16 nM |
| CCOc1nn(CCO)c2c1/C=C/c1n[nH]c3cnc(cc13)-c1cnn(C)c1O[C@@H](C)CN(C(C)C)C2 [Ex. 11, 2-[(10S,17E)-16-ethoxy-8,10-dimethyl-12-(propan-2-yl)-2,8,10,11,12,13-hexahydro-14H-5,3-(azenometheno)tripyrazolo[3,4-f:3′,4′-j:4″,3″-n][1,4]oxazacyclopentadecin-14-yl]ethan-1-ol] | 0.38 nM | 0.83 nM |  | 16.1 nM | 0.1 nM | 0.31 nM | 0.43 nM | 2.86 nM | 0.44 nM | 5.25 nM | 0.23 nM | 0.52 nM | 3.65 nM | 0.25 nM | 3.14 nM | 0.16 nM |
